Measured values as given in patent publication US20200246284A1 (Academia Sinica, priority 2015, published 2020).
“And” between values parts separate entries of the source, which are not always exact repeats. Identical values can stand only once. Like-named read-outs stand apart in the source and are kept apart here. One block for each compound: values may come before it.

Key:
[1] = test system: 16HBE SV40+ bronchial epithelium; format: cell-based, human
[2] = test system: BEAS2B SV40 bronchial epithelium; format: cell-based, human
BMMSC BM mesenchyme = test: Cytotoxicity normal tissue 72 hr; format: cell-based, human
HS27 adult BM stroma = format: cell-based, human
[3] = test system: MRC5 fetal lung fibroblast; format: cell-based, human
[4] = test system: IMR90 fetal lung myofibroblast; test: Cytotoxicity normal tissue 72 hr; format: cell-based, human
[5] = test system: Cord Blood CFC (CFU-GM, BFU-E, CFU-C); format: cell-based, human
CALU-1 = format: cell-based, human
CALU-3 = format: cell-based, human
CALU-6 = format: cell-based, human
H1395 = format: cell-based, human
H1650 = format: cell-based, human
H1666 = format: cell-based, human
H1755 = format: cell-based, human
H1781 = format: cell-based, human
H1975 = format: cell-based, human
H2228 = format: cell-based, human
H3122 = format: cell-based, human
H3255 = format: cell-based, human
H525 = format: cell-based, human
HCC364 = format: cell-based, human
HCC827 = format: cell-based, human
PC9 = format: cell-based, human
SK-LU-1 = format: cell-based, human
H1373 = format: cell-based, human
H596 = format: cell-based, human
H647 = format: cell-based, human
A549 = format: cell-based, human
EBC1 = format: cell-based, human
H1703 = format: cell-based, human
H520 = format: cell-based, human
HCC15 = format: cell-based, human
HCC2450 = format: cell-based, human
PC1 (jap) = format: cell-based, human
SK-MES-1 = format: cell-based, human
[6] = test system: normal human, murine or primate cell and tissue types; test: Cytotoxicity, panel of normal tissues (MTT, alamar blue); format: cell-based
[7] = test system: nude mice bearing prostate 22Rv/HL2 tumor xenografts; settings: mouse, in vivo
[8] = test system: nude mice bearing prostate 22Rv/HL2; settings: mouse, in vivo; on BASO: test concentration or dose not given here; on EOS: test concentration or dose not given here; on LYM: test concentration or dose not given here; on MONO: test concentration or dose not given here; on NEU: test concentration or dose not given here; on PLT: test concentration or dose not given here
[9] = test system: nude mice bearing prostate 22Rv/HL2; settings: mouse, in vivo; remark: listed apart in the source; on BASO: test concentration or dose not given here; on EOS: test concentration or dose not given here; on LYM: test concentration or dose not given here; on MONO: test concentration or dose not given here; on NEU: test concentration or dose not given here; on PLT: test concentration or dose not given here
DLBCL (GBC) cell lines = test: Combination of BO-1055 with PUH71, TT46, bortezomib, doxorubicin (Table 25); format: cell-based; settings: Homo sapiens, read-out: IC50 single agent
Z-138 [10] = test: Combination with BO-1055, MCL (Tables 28, 29); format: cell-based, human; settings: Z-138; combo-1 BO-1055 variable, combo-2 partner variable
Granta = test: Combination with BO-1055, MCL (Tables 28, 29); format: cell-based, human; settings: Granta; combo-1 BO-1055 variable, combo-2 partner variable
REC-1 = test: Combination with BO-1055, MCL (Tables 28, 29); format: cell-based, human; settings: REC-1; combo-1 BO-1055 variable, combo-2 partner variable
Mino [11] = test: Combination with BO-1055, MCL (Tables 28, 29); format: cell-based, human; settings: Mino; combo-1 BO-1055 variable, combo-2 partner variable
NECB1 = test: Combination with BO-1055, MCL (Tables 28, 29); format: cell-based, human; settings: NECB1; combo-1 BO-1055 variable, combo-2 partner variable
LY1 = test: Cytotoxicity DLBCL; settings: read-out: cytotoxicity IC50; LY1, DLBCL GCB
Ly3 (OCI-LY3) = test: Cytotoxicity DLBCL; settings: read-out: cytotoxicity IC50; LY3, DLBCL ABC
Ly8 = test: Cytotoxicity DLBCL; settings: read-out: cytotoxicity IC50; LY8, DLBCL GCB
Ly18 = test: Cytotoxicity DLBCL; settings: read-out: cytotoxicity IC50; LY18, DLBCL GCB
SUDHL-4 = test: Cytotoxicity DLBCL; settings: read-out: cytotoxicity IC50; SUDHL-4, DLBCL GCB
SUDHL-6 = test: Cytotoxicity DLBCL; settings: read-out: cytotoxicity IC50; SUDHL-6, DLBCL GCB
Toledo = test: Cytotoxicity DLBCL; settings: read-out: cytotoxicity IC50, DLBCL GCB
Karpas-422 = test: Cytotoxicity DLBCL; settings: read-out: cytotoxicity IC50; Karpas-422, DLBCL GCB
HBL1 = test: Cytotoxicity DLBCL; settings: read-out: cytotoxicity IC50; HBL1, DLBCL ABC
U2932 = test: Cytotoxicity DLBCL; settings: read-out: cytotoxicity IC50; U2932, DLBCL ABC
SUDHL-5 = test: Cytotoxicity DLBCL; settings: read-out: cytotoxicity IC50; SUDHL-5, DLBCL GCB
JEKO-1 = test: Cytotoxicity mantle cell lymphoma
Z-138 [12] = test: Cytotoxicity mantle cell lymphoma; settings: read-out: cytotoxicity IC50; Z-138, mantle cell lymphoma
Mino [13] = test: Cytotoxicity mantle cell lymphoma; settings: read-out: cytotoxicity IC50; Mino, mantle cell lymphoma
Granta-519 = test: Cytotoxicity mantle cell lymphoma; settings: read-out: cytotoxicity IC50; Granta-519, mantle cell lymphoma
NECB-1 = test: Cytotoxicity mantle cell lymphoma; settings: read-out: cytotoxicity IC50; NECB-1, mantle cell lymphoma
[14] = test system: spontaneous murine B-cell lymphoma; test: Cytotoxicity, with or without MS5 stromal cells; settings: read-out: cytotoxicity IC50; murine BCL, spontaneous NSG CD19+, no stromal support

Compound: N.N.O=C([O-])C1(C(=O)[O-])CCC1.[Pt+2] [Carboplatin]
IC50 [1]: 35.5 µM | IC50 [2]: 120 µM | IC50 (BMMSC BM mesenchyme): 32.8 µM | IC50 (HS27 adult BM stroma): 35.3 µM | IC50 [3]: 210 µM | IC50 [4]: 1000 µM | IC50 [5]: 1.7 µM | IC50 (CALU-1): 96.2 µM | IC50 (CALU-3): 84.5 µM | IC50 (CALU-6): 14.7 µM | IC50 (H1395): 17.4 µM | IC50 (H1650): 69.7 µM | IC50 (H1666): 90.7 µM | IC50 (H1755): 41.4 µM | IC50 (H1781): 3.99 µM | IC50 (H1975): 60.2 µM | IC50 (H2228): 8.62 µM | IC50 (H3122): 109 µM | IC50 (H3255): 24.3 µM | IC50 (H525): 72.7 µM | IC50 (HCC364): 172 µM | IC50 (HCC827): 138 µM | IC50 (PC9): 32.1 µM | IC50 (SK-LU-1): 42.4 µM | IC50 (H1373): 29.3 µM | IC50 (H596): 34.1 µM | IC50 (H647): 25.5 µM | IC50 (A549): 41.3 µM | IC50 (EBC1): 168 µM | IC50 (H1703): ≥ 80 µM | IC50 (H520): 75.6 µM | IC50 (HCC15): 173 µM | IC50 (HCC2450): 34.5 µM | IC50 (PC1 (jap)): 57.4 µM | IC50 (SK-MES-1): 160 µM | IC50 [6]: ≥ 32.8 µM | pathological change in heart, liver, spleen, lung and kidney [7]: no apparent pathological change | ALT [8]: 64.85 U/L | AST [8]: 119.15 U/L | BUN [8]: 21.17 mg/dL | CREA [8]: 0.31 mg/dL | UA [8]: 1.97 mg/dL | BASO [9]: 0.03 10^3/μL | EOS [9]: 0.13 10^3/μL | LYM [9]: 0.60 10^3/μL | MONO [9]: 0.07 10^3/μL | NEU [9]: 1.13 10^3/μL | PLT [9]: 369 10^3/μL | RBC [9]: 9.37 10^6/μL | WBC [9]: 1.97 10^3/μL

IC50 (DLBCL (GBC) cell lines; Farage): 0.785 µM | IC50 (DLBCL (GBC) cell lines; KARPAS-422, KARPAS-422): 1.52 µM | IC50 (DLBCL (GBC) cell lines; OCI-LY19, OCI-LY19): 0.221 µM | IC50 (DLBCL (GBC) cell lines; OCI-Ly8, OCI-LY8): 0.814 µM | IC50 (DLBCL (GBC) cell lines; OCI-Ly18, OCI-LY18): 0.274 µM | IC50 (DLBCL (GBC) cell lines; OCY-LY1): 0.208 µM | IC50 (DLBCL (GBC) cell lines; OCY-LY7): 0.391 µM | IC50 (DLBCL (GBC) cell lines; PFEIFER): 0.335 µM | IC50 (DLBCL (GBC) cell lines; SU-DHL-4, SUDHL4): 0.379 µM | IC50 (DLBCL (GBC) cell lines; SU-DHL-5, SUDHL5): 0.336 µM | IC50 (DLBCL (GBC) cell lines; SU-DHL-6, SUDHL6): 0.672 µM | IC50 (DLBCL (GBC) cell lines; Toledo): 10.9 µM
Compound: CC(C)NCCCn1c(Sc2cc3c(cc2I)OCO3)nc2c(N)ncnc21 [PUH71]
interaction with BO-1055 (Z-138 [10]): synergistic with BO-1055 in both combinations | interaction with BO-1055 (Granta): dually antagonistic | interaction with BO-1055 (REC-1): antagonistic against REC-1 in both combinations | interaction with BO-1055 (Mino [11]): dually synergistic | interaction with BO-1055 (NECB1): synergistic with BO-1055 against NECB1 in combo-1 and antagonistic in combo-2 | IC50 (LY1): 0.26 µM and 0.308 µM | IC50 (Ly3 (OCI-LY3)): 2.78 µM | IC50 (Ly8): 0.81 µM | IC50 (Ly18): 0.27 µM | IC50 (SUDHL-4): 0.2 µM | IC50 (SUDHL-6): 0.05 µM | IC50 (Toledo): 2.66 µM | IC50 (Karpas-422): 0.45 µM | IC50 (HBL1): 1.67 µM | IC50 (U2932): 0.49 µM | IC50 (SUDHL-5): 0.41 µM | IC50 (JEKO-1; JEKO-1, 72 hr (Table 27)): 0.31 µM | IC50 (JEKO-1; read-out: cytotoxicity IC50, JEKO-1, mantle cell lymphoma): 0.26 µM | IC50 (Z-138 [12]): 0.06 µM | IC50 (Mino [13]): 0.26 µM | IC50 (Granta-519): 1.22 µM | IC50 (NECB-1): 1.66 µM | IC50 [14]: 0.24 µM
